From patent US7132536B2, “Triaza- and tetraaza-anthracenedione derivatives, their preparation and their use as pharmaceuticals” (Sanofi-aventis Deutschland GmbH, priority 2003, dated 2006)
pEC50: −log10 of the molar value. Counter-ions that a name gives are not always drawn.

Test system: eNOS promoter
Experiment: Activation of eNOS transcription (eNOS promoter-luciferase reporter gene assay)
Format: cell-based
Conditions: human endothelial cell line stably transfected with eNOS promoter-firefly luciferase construct; 18 h incubation; EC50 determined graphically; read-out: EC50 of transcription induction ratio (TIR)
Method: Activation of eNOS transcription was measured as described in detail by Li et al., “Activation of protein kinase C alpha and/or epsilon enhances transcription of the human endothelial nitric oxide synthase gene”, Mol. Pharmacol. 53 (1998) 630. Briefly, a 3.5 kB long fragment 5′ of the starting codon of the eNOS gene was cloned, sequenced and cloned in firefly luciferase expression plasmids to monitor activation of the eNOS promoter by reporter gene activity. A human endothelial cell line stable transfected and expressing this promoter-reporter construct was used for compound testing. Cells were incubated for 18 h with the compounds.
All compounds were dissolved in sterile dimethylsulfoxide (DMSO). A final concentration of 0.5% DMSO in complete medium was allowed. Induction of reporter gene expression in these cells was measured using a standard luciferase assay system (Promega, Cat. No. E150) according to the manufacturer's instructions. Luciferase induction in cells incubated with compounds were compared to those incubated with solvent alone. The ratio of both activities (transcription induction ratio, TIR) was plotted as a function of compound concentration. Typically, TIR values started at low concentrations at a ratio of 1, indicating no compound effect, and extended up to a maximum TIR value TIR(max) which indicates the increase of the eNOS transcription. EC50 values of transcription induction ratios as a function of compound concentration were determined graphically.

SMILES | pEC50
CC(C)[C@H]1C(=O)N(CCCCc2ccccc2)CC2N(CCCn3ccnc3)c3ccc([N+](=O)[O-])cc3C(=O)N21 (stereo partly drawn) [Example 1, (4S)-9-(3-(Imidazol-1-yl)propyl)-4-isopropyl-6-nitro-2-(4-phenylbutyl)-1,2,9,9a-tetrahydro-2,4a,9-triaza-anthracene-3,10(4H)-dione trifluoroacetic acid salt] | 5.66
CC(C)[C@H]1C(=O)N(Cc2ccc(C(C)(C)C)cc2)CC2N(CCCn3ccnc3)c3ccc([N+](=O)[O-])cc3C(=O)N21 (stereo partly drawn) [Example 2, (4S)-2-(4-tert-Butylbenzyl)-9-(3-(imidazol-1-yl)propyl)-4-isopropyl-6-nitro-1,2,9,9a-tetrahydro-2,4a,9-triaza-anthracene-3,10(4H)-dione trifluoroacetic acid salt] | 5.92
CC(C)[C@H]1C(=O)N(Cc2cccc3ccccc23)CC2N(CCCn3ccnc3)c3ccc([N+](=O)[O-])cc3C(=O)N21 (stereo partly drawn) [Example 3, (4S)-9-(3-(Imidazol-1-yl)propyl)-4-isopropyl-2-(naphth-1-ylmethyl)-6-nitro-1,2,9,9a-tetrahydro-2,4a,9-triaza-anthracene-3,10(4H)-dione trifluoroacetic acid salt] | 4.70
O=C1[C@H](Cc2cccc(F)c2)N2C(=O)c3cc([N+](=O)[O-])ccc3N(CCCn3ccnc3)C2CN1CCCCc1ccccc1 (stereo partly drawn) [Example 4, (4S)-4-(3-Fluorobenzyl)-9-(3-(imidazol-1-yl)propyl)-6-nitro-2-(4-phenylbutyl)-1,2,9,9a-tetrahydro-2,4a,9-triaza-anthracene-3,10(4H)-dione trifluoroacetic acid salt] | 5.10
O=C1[C@H](C2CCCCC2)N2C(=O)c3cc([N+](=O)[O-])ccc3N(CCCn3ccnc3)C2CN1CCCCc1ccccc1 (stereo partly drawn) [Example 5, (4S)-4-Cyclohexyl-9-(3-(imidazol-1-yl)propyl)-6-nitro-2-(4-phenylbutyl)-1,2,9,9a-tetrahydro-2,4a,9-triaza-anthracene-3,10(4H)-dione trifluoroacetic acid salt] | 5.55
COc1ccc(C[C@H]2C(=O)N(CCCCc3ccccc3)CC3N(CCCn4ccnc4)c4ccc([N+](=O)[O-])cc4C(=O)N32)cc1OC (stereo partly drawn) [Example 6, (4S)-4-(3,4-Dimethoxybenzyl)-9-(3-(imidazol-1-yl)propyl)-6-nitro-2-(4-phenylbutyl)-1,2,9,9a-tetrahydro-2,4a,9-triaza-anthracene-3,10(4H)-dione trifluoroacetic acid salt] | 4.62
CC(C)[C@H]1C(=O)N(CCCCc2ccccc2)CC2N(CCc3ccncc3)c3ccc([N+](=O)[O-])cc3C(=O)N21 (stereo partly drawn) [Example 7, (4S)-4-Isopropyl-6-nitro-2-(4-phenylbutyl)-9-(2-(pyridin-4-yl)ethyl)-1,2,9,9a-tetrahydro-2,4a,9-triaza-anthracene-3,10(4H)-dione trifluoroacetic acid salt] | 4.70
O=C1[C@H](Cc2c[nH]cn2)N2C(=O)c3cc([N+](=O)[O-])ccc3N(CCCCc3ccccc3)C2CN1CCCCc1ccccc1 (stereo partly drawn) [Example 8, (4S)-4-(1H—Imidazol-4-ylmethyl)-6-nitro-2,9-bis(4-phenylbutyl)-1,2,9,9a-tetrahydro-2,4a,9-triaza-anthracene-3,10(4H)-dione trifluoroacetic acid salt] | 5.22
O=C1[C@H](Cc2c[nH]cn2)N2C(=O)c3cc([N+](=O)[O-])ccc3N(Cc3ccc(OC(F)(F)F)cc3)C2CN1CCCCc1ccccc1 (stereo partly drawn) [Example 9, (4S)-4-(1H-Imidazol-4-ylmethyl)-6-nitro-2-(4-phenylbutyl)-9-(4-trifluoromethoxy-benzyl)-1,2,9,9a-tetrahydro-2,4a,9-triaza-anthracene-3,10(4H)-dione trifluoroacetic acid salt] | 5.08
CC(C)[C@H]1C(=O)N(CCCCc2ccccc2)CC2N(CCCn3ccnc3)c3ccc(C(F)(F)F)cc3C(=O)N21 (stereo partly drawn) [Example 10, (4S)-9-(3-(Imidazol-1-yl)propyl)-4-isopropyl-2-(4-phenylbutyl)-6-trifluoromethyl-1,2,9,9a-tetrahydro-2,4a,9-triaza-anthracene-3,10(4H)-dione trifluoroacetic acid salt] | 4.92

The remaining lines, values ahead:

pEC50 | SMILES
4.70 | CC(C)[C@H]1C(=O)N(Cc2ccc(C(F)(F)F)cc2)CC2N(CCCn3ccnc3)c3ccc(C(F)(F)F)cc3C(=O)N21 (stereo partly drawn) [Example 11, (4S)-9-(3-(Imidazol-1-yl)propyl)-4-isopropyl-6-trifluoromethyl-2-(4-trifluoromethyl-benzyl)-1,2,9,9a-tetrahydro-2,4a,9-triaza-anthracene-3,10(4H)-dione trifluoroacetic acid salt]
4.70 | CC(C)[C@H]1C(=O)N(Cc2ccc(C(F)(F)F)cc2)CC2N(CCc3ccncc3)c3ccc(C(F)(F)F)cc3C(=O)N21 (stereo partly drawn) [Example 12, (4S)-4-Isopropyl-9-(2-(pyridin-4-yl)ethyl)-6-trifluoromethyl-2-(4-trifluoromethylbenzyl)-1,2,9,9a-tetrahydro-2,4a,9-triaza-anthracene-3,10(4H)-dione trifluoroacetic acid salt]
5.15 | O=C1[C@H](C2CCCCC2)N2C(=O)c3cc(C(F)(F)F)ccc3N(CCCn3ccnc3)C2CN1CCCCc1ccccc1 (stereo partly drawn) [Example 13, (4S)-4-Cyclohexyl-9-(3-(imidazol-1-yl)propyl)-2-(4-phenylbutyl)-6-trifluoromethyl-1,2,9,9a-tetrahydro-2,4a,9-triaza-anthracene-3,10(4H)-dione trifluoroacetic acid salt]
4.92 | COc1ccc(CN2CC3N(CCCn4ccnc4)c4ccc(C(F)(F)F)cc4C(=O)N3[C@@H](C(C)C)C2=O)c(OC)c1 (stereo partly drawn) [Example 14, (4S)-2-(2,4-Dimethoxybenzyl)-9-(3-(imidazol-1-yl)propyl)-4-isopropyl-6-trifluoromethyl-1,2,9,9a-tetrahydro-2,4a,9-triaza-anthracene-3,10(4H)-dione trifluoroacetic acid salt]
5.40 | CC(C)[C@H]1C(=O)N(Cc2ccc(C(C)(C)C)cc2)CC2N(CCCn3ccnc3)c3ccc(C(F)(F)F)cc3C(=O)N21 (stereo partly drawn) [Example 15, (4S)-2-(4-tert-Butylbenzyl)-9-(3-(imidazol-1-yl)propyl)-4-isopropyl-6-trifluoromethyl-1,2,9,9a-tetrahydro-2,4a,9-triaza-anthracene-3,10(4H)-dione trifluoroacetic acid salt]
5.10 | O=C1[C@H](Cc2cccc(F)c2)N2C(=O)c3cc(C(F)(F)F)ccc3N(CCCn3ccnc3)C2CN1CCCCc1ccccc1 (stereo partly drawn) [Example 16, (4S)-4-(3-Fluorobenzyl)-9-(3-(imidazol-1-yl)propyl)-2-(4-phenylbutyl)-6-trifluoromethyl-1,2,9,9a-tetrahydro-2,4a,9-triaza-anthracene-3,10(4H)-dione trifluoroacetic acid salt]
4.00 | CC(C)C1C(=O)N(Cc2ccc(C(C)(C)C)cc2)CC2N(CCCn3ccnc3)c3cccnc3C(=O)N12 (stereo not drawn) [Example 36, 6-(4-tert-Butylbenzyl)-10-(3-(imidazol-1-yl)propyl)-8-isopropyl-5,6,10,10a-tetrahydro-1,6,8a,10-tetraaza-anthracene-7,9(8H)-dione trifluoroacetic acid salt]
4.00 | Cc1ccc2c(n1)C(=O)N1C(C(C)C)C(=O)N(Cc3ccc(C(C)(C)C)cc3)CC1N2CCCn1ccnc1 (stereo not drawn) [Example 37, 6-(4-tert-Butylbenzyl)-10-(3-(imidazol-1-yl)propyl)-8-isopropyl-2-methyl-5,6,10,10a-tetrahydro-1,6,8a,10-tetraaza-anthracene-7,9(8H)-dione trifluoroacetic acid salt]
6.40 | CC[C@H]1C(=O)N(Cc2ccc(C(C)(C)C)cc2)CC2N(CCCn3ccnc3)c3ccc([N+](=O)[O-])cc3C(=O)N21 (stereo partly drawn) [Example 38, (4S)-2-(4-tert-Butylbenzyl)-4-ethyl-9-(3-(imidazol-1-yl)propyl)-6-nitro-1,2,9,9a-tetrahydro-2,4a,9-triaza-anthracene-3,10(4H)-dione trifluoroacetic acid salt]
6.54 | CC(C)C1C(=O)N(Cc2ccc(C(C)(C)C)cc2)CC2N(CCCn3ccnc3)c3ccc([N+](=O)[O-])cc3C(=O)N12 (stereo not drawn) [Example 39, 2-(4-tert-Butylbenzyl)-9-(3-(imidazol-1-yl)propyl)-4-isopropyl-6-nitro-1,2,9,9a-tetrahydro-2,4a,9-triaza-anthracene-3,10(4H)-dione trifluoroacetic acid salt]
6.66 | CCC1C(=O)N(Cc2ccc(C(C)(C)C)cc2)CC2N(CCc3ccncc3)c3ccc([N+](=O)[O-])cc3C(=O)N12 (stereo not drawn) [Example 40, 2-(4-tert-Butylbenzyl)-4-ethyl-6-nitro-9-(2-(pyridin-4-yl)ethyl)-1,2,9,9a-tetrahydro-2,4a,9-triaza-anthracene-3,10(4H)-dione trifluoroacetic acid salt]
